“And” between values parts separate entries of the source, which are not always exact repeats. Identical values can stand only once.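 The compound was tested at five concentrations on cells cultured in 96-well plates, with a 48-hour exposure period. Abbreviation: GI50, concentration required for 50% inhibition of growth. At the TGI there is no net growth.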
System: MDA-MB-468 breast
Experiment: NCI anticancer screen, dose series, 48 h

## Cc1ccc([P+](Cc2ccc([N+](=O)[O-])cc2)(c2ccc(C)cc2)c2ccc(C)cc2)cc1
  GI50: 0.66 µM
  TGI: 5.8 µM

## Cc1nn(-c2ccccc2)c2c1C1C(=C(c3ccc(Cl)cc3)N2)C(=O)Nc2ccccc21 (centres undefined)
  GI50: 3.34 µM
  TGI: 19.5 µM

## CCN(CC)CCC(=O)Nc1ccc(Cn2nnc3c2C(=O)c2nnn(Cc4ccc(NC(=O)CCN(CC)CC)cc4)c2C3=O)cc1
  GI50: 0.17 µM
  TGI: 0.374 µM

## NS(=O)(=O)c1ccc(Nc2nc(Nc3ccccc3)nc(-n3nc(-c4ccccc4)cc3-c3ccccc3)n2)cc1
  GI50: 2.31 µM
  TGI: 6.95 µM

## O=C1OC(c2ccc(O)cc2)(c2ccc(O)cc2)c2cccc3cccc1c23
  GI50: 4.06 µM
  TGI: 21.7 µM

## COC(=O)[C@H](Cc1ccccc1)NC(=O)c1csc([C@@H](C[C@H](C(C)C)N(C)C(=O)[C@@H](NC(=O)[C@H]2CCCCN2C)C2CC2)OC(C)=O)n1
  GI50: 0.0441 µM
  TGI: > 25 µM

## O=C1c2cccnc2C(=O)c2c1c(C(=O)OCCCN1CCOCC1)c1ccccn21
  GI50: 1.39 µM
  TGI: 7.1 µM

## Nc1ncnc2occ(-c3ccc(NC(=O)Nc4cc(C(F)(F)F)cc(C(F)(F)F)c4)cc3)c12
  GI50: 2.75 µM
  TGI: 7.81 µM

## O=C1C=C(Nc2cccc(Br)c2)c2ccccc2C1=O
  GI50: 17.6 µM
  TGI: 83.8 µM

## CC[C@]12C=CCN3CC[C@]4(C(=C(C(=O)OC)C1)Nc1cc(O)ccc14)[C@@H]32
  GI50: 9.38 µM
  TGI: 44 µM

## Cn1c(=O)n(-c2ccc(C(C)(C)C#N)cc2)c2c3cc(-c4cnc5ccccc5c4)ccc3ncc21
  GI50: 0.0118 µM and 0.00531 µM and < 0.0105 µM
  TGI: 0.0505 µM and 0.0285 µM and 0.0642 µM

## N#CC1c2ccccc2-c2ccccc2N1C(=O)c1ccccc1 (centres undefined)
  GI50: 0.383 µM
  TGI: > 26.1 µM

## COC(=O)c1cc(Nc2ccc(O)c3c2C(=O)c2c([N+](=O)[O-])ccc(O)c2C3=O)cc(C(=O)OC)c1
  GI50: 16.5 µM
  TGI: 98.5 µM

## COc1cccc(-c2nn(-c3ccccc3)cc2-c2ccnc(NCCNC(=O)Nc3ccc(Cl)c(Cl)c3)c2)c1
  GI50: 1.7 µM
  TGI: 4.54 µM

## CCCCCCCCCCCCCCCC[N+]1(CC)CCCC1
  GI50: 0.184 µM
  TGI: 0.799 µM

## COc1ccc(/C=C\c2cc(OC)c(OC)c(OC)c2)cc1OP(=O)(O)O
  GI50: 0.0543 µM
  TGI: > 100 µM

## COc1cc(C2C3=C(COC3=O)N(CCO)c3cc4c(cc32)CCC4)cc(OC)c1O (centres undefined)
  GI50: 0.0891 µM

## COc1ccc2nc3ccc(OC)cc3c(SCCCN)c2c1
  GI50: 1.4 µM
  TGI: 2.94 µM

## Cc1nnc([S-])s1.[Au+].c1ccc([PH+](c2ccccc2)c2ccccc2)cc1
  GI50: 1.27 µM
  TGI: 2.86 µM

## CN1C(=O)c2cc(Cl)nc3c(NC(=O)c4cccc(Cl)c4)c(Cl)c(NC(=O)c4cccc(Cl)c4)c1c23
  GI50: 1.99 µM
  TGI: 6.05 µM

## Oc1ccc(CSc2nnc(-c3cnccn3)o2)c2cccnc12
  GI50: 0.639 µM
  TGI: 7.8 µM

## Oc1ccc(-c2nnc(SCc3ccc(O)c4ncccc34)o2)cc1
  GI50: 2 µM
  TGI: 8.06 µM

## C/C(=C(/c1ccc(O)cc1)c1ccc(OCCN2CCCC2)cc1)c1ccccc1
  GI50: 1.84 µM
  TGI: 4.47 µM

## CC1Cc2c(N(C)C)ncnc2N(C)c2ccc(Cl)cc21 (centres undefined)
  GI50: 2.66 µM
  TGI: 67.7 µM

## Cc1ccc(NCSc2ccc(Cl)cc2)cc1
  GI50: 2.68 µM
  TGI: 8.05 µM

## CCOC(=O)c1[nH]c2c(c1C)-c1[nH]c(=O)c(S(=O)(=O)c3ccccc3)cc1SC2
  GI50: 54 µM
  TGI: > 100 µM

## COc1ccccc1C(=O)c1cnc(NC2CCN(S(C)(=O)=O)CC2)nc1N
  GI50: 7.79 µM
  TGI: > 25 µM

## COc1cc[nH]c1/C=C1\C(=O)Nc2ccc(F)c(C#CC3(O)CCOCC3)c21
  GI50: 0.71 µM
  TGI: 2.9 µM

## CCCC/C(=N\N=C(N)N)c1ccc(F)cc1
  GI50: 0.59 µM
  TGI: 5.81 µM

## COc1ccccc1Cn1cc2c(c1)-c1oncc1CC2
  GI50: 0.217 µM
  TGI: 0.697 µM

Reference: PubChem BioAssay (NCI)
